According to patent publication US8815909B2, “Diaminocyclohexane compounds and uses thereof” (Bristol-Myers Squibb Company, priority 2011, dated 2014):

biological target: T1, human Y4 receptor (Homo sapiens, UniProt P50391); experiment: NPY4 cAMP HTRF Agonist Assay (inhibitory cAMP assay, Gi activation by Y4 agonism); assay type: cell-based; settings: TABLE 2, R2 is Phenyl-CN; read-out: hY4 CAMP EC50
T1 construct: expressed in transfected cells
Method in brief: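 CHO cells stably expressing human Y4, 5000/well, exposed to compound with forskolin and IBMX in PBS for 30 min at room temperature. Gi-mediated inhibition of cAMP then measured by HTRF after 1 h with d2-conjugate and anti-cAMP cryptate.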

T1 sequence (P50391 whole entry): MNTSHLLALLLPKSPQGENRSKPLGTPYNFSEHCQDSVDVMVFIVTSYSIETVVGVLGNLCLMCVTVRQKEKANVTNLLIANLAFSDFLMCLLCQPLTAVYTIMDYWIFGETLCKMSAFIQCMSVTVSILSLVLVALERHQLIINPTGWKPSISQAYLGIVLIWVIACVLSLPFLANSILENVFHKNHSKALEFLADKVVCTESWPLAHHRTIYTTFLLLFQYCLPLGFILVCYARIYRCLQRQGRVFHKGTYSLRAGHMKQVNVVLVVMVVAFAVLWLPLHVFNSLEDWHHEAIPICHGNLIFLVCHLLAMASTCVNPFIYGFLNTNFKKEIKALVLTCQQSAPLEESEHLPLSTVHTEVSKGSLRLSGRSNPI

Row | SMILES | EC50
1 | N#Cc1ccc(N2CCC[C@H](N[C@@H]3CCCC[C@H]3Nc3ncc(-c4ccccc4OC(F)(F)F)o3)C2)cc1 [Example 226] | 5 nM
2 | CS(=O)(=O)NCc1ccc(-c2ccnc(N[C@@H]3CCCC[C@H]3N[C@H]3CCCN(c4ccc(C#N)cc4)C3)c2)cc1 [Example 243] | 602 nM
3 | CNC(=O)c1cccc(-c2ccnc(N[C@@H]3CCCC[C@H]3N[C@H]3CCCN(c4ccc(C#N)cc4)C3)c2)c1 [Example 261] | 9 nM
4 | N#Cc1ccc(N2CCC[C@H](N[C@@H]3CCCC[C@H]3Nc3cc(-c4ccccc4C#N)ccn3)C2)cc1 [Example 274] | 272 nM
5 | N#Cc1ccc(N2CCC[C@H](N[C@@H]3CCCC[C@H]3Nc3cc(-c4ccccc4OC(F)(F)F)ccn3)C2)cc1 [Example 241] | 289 nM
6 | N#Cc1ccc(N2CCC[C@H](N[C@@H]3CCCC[C@H]3Nc3cc(-c4cccc(N)n4)ccn3)C2)cc1 [Example 237] | 9 nM
7 | N#Cc1ccc(N2CCC[C@H](N[C@@H]3CCCC[C@H]3Nc3cc(-c4ccc(CO)cc4)ccn3)C2)cc1 [Example 218] | 302 nM
8 | N#Cc1ccc(N2CCC[C@H](N[C@@H]3CCCC[C@H]3Nc3cc(-c4cccc5cn[nH]c45)ccn3)C2)cc1 [Example 209] | 83 nM
9 | COC(=O)Nc1cccc(-c2ccnc(N[C@@H]3CCCC[C@H]3N[C@H]3CCCN(c4ccc(C#N)cc4)C3)c2)c1 [Example 200] | 3 nM
10 | N#Cc1ccc(N2CC3CC2[C@@H](N[C@@H]2CCCC[C@H]2Nc2ncc(-c4ccc(OC(F)F)cc4)o2)C3)cc1 (some centres unmarked) [Example 229] | 3 nM
11 | N#Cc1ccc(N2CCC[C@H](N[C@@H]3CCCC[C@H]3Nc3cc(-c4ccc(C#N)s4)ccn3)C2)cc1 [Example 273] | 542 nM

Next, values leading:

Row | EC50 | SMILES
12 | 24 nM | CS(=O)(=O)NCc1cccc(-c2ccnc(N[C@@H]3CCCC[C@H]3N[C@H]3CCCN(c4ccc(C#N)cc4)C3)c2)c1 [Example 278]
13 | 8 nM | CC(=O)Nc1cc(-c2ccnc(N[C@@H]3CCCC[C@H]3N[C@H]3CCCN(c4ccc(C#N)cc4)C3)c2)ccn1 [Example 277]

same assay, conditions: TABLE 5, R2 is Pyridinyl-CF3; read-out: hY4 CAMP EC50

Row | EC50 | SMILES
14 | 24 nM | C[C@]1(N[C@@H]2CCCC[C@H]2Nc2cc(-c3cccc(C(N)=O)c3)ccn2)CCCN(c2ccc(C(F)(F)F)cn2)C1 [Example 332]
15 | 26 nM | NC(=O)c1cccc(-c2ccnc(N[C@@H]3CCCC[C@H]3N[C@H]3C[C@@H]4C[C@H]3N(c3ccc(C(F)(F)F)cn3)C4)c2)c1 [Example 337]
16 | 1 nM | C[C@]1(N[C@@H]2CCCC[C@H]2Nc2ncc(-c3cccc(C(N)=O)c3)o2)CCCN(c2ccc(C(F)(F)F)cn2)C1 [Example 329]
17 | 567 nM | NC(=O)c1cccc(-c2cnc(N[C@@H]3CCCC[C@H]3N[C@H]3C[C@@H]4C[C@H]3N(c3ccnc(C(F)(F)F)c3)C4)o2)c1 [Example 325]

same assay, conditions: TABLE 7, R2 is Pyridinyl-oxadiazole-CH3; read-out: hY4 CAMP EC50

Row | EC50 | SMILES
18 | 3 nM | Cc1nc(-c2ccc(N3CCC[C@H](N[C@@H]4CCCC[C@H]4Nc4ncc(-c5cccc(C(N)=O)c5)o4)C3)cn2)no1 [Example 397]
19 | 2 nM | Cc1nc(-c2ccc(N3CCC[C@H](N[C@@H]4CCCC[C@H]4Nc4nccc(-c5ccccc5)n4)C3)nc2)no1 [Example 391]
20 | 243 nM | Cc1nc(-c2ccc(N3CCC[C@H](N[C@@H]4CCCC[C@H]4Nc4ncc(-c5cccc(C(=O)NCC(C)C)c5)o4)C3)cn2)no1 [Example 386]

same assay, conditions: human Y4 receptor, cAMP; read-out: hY4 CAMP EC50

Row | EC50 | SMILES
21 | 228 nM | N#Cc1cnc(N2C[C@@H]3C[C@H](N[C@@H]4CCCC[C@H]4Nc4cc(-c5cccc(C(N)=O)c5)ccn4)[C@H]2C3)nc1 [Example 442]
22 | 3 nM | NC(=O)c1cccc(-c2cnc(N[C@@H]3CCCC[C@H]3N[C@H]3CCCN(c4ccc(F)c(F)c4)C3)o2)c1 [Example 454]
23 | 264 nM | Fc1ccc(-c2cnc(N[C@@H]3CCCC[C@H]3N[C@H]3CCCN(c4cnc(C(F)(F)F)nc4)C3)o2)c(F)c1 [Example 403]
24 | 101 nM | NC(=O)c1cccc(-c2cnc(N[C@@H]3CCCC[C@H]3N[C@H]3CCCN(c4ccc(-n5cncn5)cc4)C3)o2)c1 [Example 500]
25 | 82 nM | FC(F)(F)Oc1ccc(-c2cnc(N[C@@H]3CCCC[C@H]3N[C@H]3C[C@@H]4C[C@H]3N(c3cc(Cl)ncn3)C4)o2)cc1 [Example 510]
26 | 128 nM | C[C@]1(N[C@@H]2CCCC[C@H]2Nc2ncc(-c3ccc(OC(F)(F)F)cc3)o2)CCCN(c2ccc(O)cc2)C1 [Example 509]
27 | 19 nM | CS(=O)(=O)Nc1cccc(-c2ccnc(N[C@@H]3CCCC[C@H]3N[C@H]3CCCN(c4cnc(C(F)(F)F)nc4)C3)c2)c1 [Example 415]
28 | 954 nM | FC(F)(F)Oc1cccc(-c2cnc(N[C@@H]3CCCC[C@H]3N[C@H]3CCCN(c4cnc(C(F)(F)F)nc4)C3)o2)c1 [Example 404]
29 | 15 nM | Cc1noc(-c2ccc(N3CCC[C@H](N[C@@H]4CCCC[C@H]4Nc4nccc(-c5ccccc5)n4)C3)cc2)n1 [Example 354]
30 | 49 nM | C[C@]1(N[C@@H]2CCCC[C@H]2Nc2ncc(-c3cccc(C(N)=O)c3)o2)CCCN(c2cnc(C#N)cn2)C1 [Example 476]
31 | 142 nM | C[C@]1(N[C@@H]2CCCC[C@H]2Nc2cc(-c3cccc(C(N)=O)c3)ccn2)CCCN(c2cnc(C(F)(F)F)cn2)C1 [Example 474]
32 | 9 nM | C[C@]1(N[C@@H]2CCCC[C@H]2Nc2ncc(-c3cccc(C(N)=O)c3)o2)CCCN(c2cnc(C(F)(F)F)cn2)C1 [Example 472]
33 | 39 nM | Cc1nc(-c2ncc(N3CCC[C@H](N[C@@H]4CCCC[C@H]4Nc4cc(-c5cccc(C(N)=O)c5)ccn4)C3)cn2)no1 [Example 463]
34 | 39 nM | Cc1nnc(-c2ccc(N3CCCC(N[C@@H]4CCCC[C@H]4Nc4cc(-c5ccc6c(c5)OCO6)ccn4)C3)cc2)o1 (some centres unmarked) [Example 368]
35 | 0.2 nM | COC(=O)Nc1cccc(-c2ccnc(N[C@@H]3CCCC[C@H]3N[C@H]3CCCN(c4ccc(-c5noc(C6CC6)n5)cc4)C3)c2)c1 [Example 458]
36 | 0.3 nM | Cn1nnc(-c2ccc(N3CCC[C@H](N[C@@H]4CCCC[C@H]4Nc4cc(-c5cccc(O)c5)ccn4)C3)cc2)n1 [Example 504]
37 | 0.2 nM | CC(=O)Nc1cccc(-c2ccnc(N[C@@H]3CCCC[C@H]3N[C@H]3CCCN(c4ccc(-c5nnn(C)n5)cc4)C3)c2)c1 [Example 506]
38 | 3 nM | NC(=O)c1cccc(-c2cnc(N[C@@H]3CCCC[C@H]3N[C@H]3CCCN(c4ccc(-c5noc(C6CC6)n5)cn4)C3)o2)c1 [Example 452]

same assay, conditions: human Y4 stable CHO clonal cells, forskolin + IBMX; read-out: NPY4 cAMP HTRF Agonist Assay EC50

Row | EC50 | SMILES
39 | 35 nM | N#Cc1ccc(N2CCC[C@H](N[C@@H]3CCCC[C@H]3Nc3ncc(-c4ccccc4F)o3)C2)cc1Cl [Example 39, 2-Chloro-4-((S)-3-((1R,2R)-2-(5-(2-fluorophenyl)oxazol-2-ylamino)cyclohexylamino)piperidin-1-yl)benzonitrile bis-trifluoroacetate]
40 | 60 nM | O=[N+]([O-])c1ccc(N2CCC[C@H](N[C@@H]3CCCC[C@H]3Nc3nccc(-c4ccccc4)n3)C2)cc1 [Example 32, (1R,2R)—N1-((S)-1-(4-Nitrophenyl)piperidin-3-yl)-N2-(4-phenylpyrimidin-2-yl)cyclohexane-1,2-diamine]
41 | 231 nM | N#Cc1ccc(N2CCC[C@H](N[C@@H]3CCCC[C@H]3Nc3cc(Br)ccn3)C2)cc1 [Example 50, 4-((S)-3-((1R,2R)-2-(4-Bromopyridin-2-ylamino)cyclohexylamino)piperidin-1-yl)benzonitrile]
42 | 562 nM | CC(C)(C)C(=O)OCc1ccnc(N[C@@H]2CCCC[C@H]2N[C@H]2CCCN(c3ccc(C#N)cc3)C2)c1 [Example 111, (2-(((1R,2R)-2-(((S)-1-(4-cyanophenyl)piperidin-3-yl)amino)cyclohexyl)amino)pyridin-4-yl)methyl pivalate]
43 | 9 nM | O=[N+]([O-])c1ccc(N2C[C@@H]3C[C@H](N[C@@H]4CCCC[C@H]4Nc4ncc(-c5ccc(OC(F)(F)F)cc5)o4)[C@H]2C3)cc1 [Example 5, (1R,2R)—N1-((1R,4R,6S)-2-(4-Nitrophenyl)-2-azabicyclo[2.2.1]heptan-6-yl)-N2-(5-(4-(trifluoromethoxy)phenyl)oxazol-2-yl)cyclohexane-1,2-diamine]

same assay, conditions: second TABLE 1, R2 is Phenyl-CF3; read-out: hY4 CAMP EC50

Row | EC50 | SMILES
44 | 12 nM | FC(F)(F)Oc1ccccc1-c1cnc(N[C@@H]2CCCC[C@H]2N[C@H]2CCCN(c3ccc(C(F)(F)F)cc3)C2)o1 [Example 197]
45 | 115 nM | OCCCCCc1ccnc(N[C@@H]2CCCC[C@H]2N[C@H]2CCCN(c3ccc(C(F)(F)F)cc3)C2)c1 [Example 186]
46 | 194 nM | FC(F)(F)c1ccc(N2CCC[C@H](N[C@@H]3CCCC[C@H]3Nc3cc(-c4ccc5scnc5c4)ccn3)C2)cc1 [Example 157]
47 | 227 nM | CC(C)(C)NC(=O)c1cccc(-c2ccnc(N[C@@H]3CCCC[C@H]3N[C@H]3CCCN(c4ccc(C(F)(F)F)cc4)C3)c2)c1 [Example 128]
48 | 764 nM | CCOC(=O)c1cnc(N[C@@H]2CCCC[C@H]2N[C@H]2CCCN(c3ccc(C(F)(F)F)cc3)C2)o1 [Example 184, ethyl 2-(((1R,2R)-2-(((S)-1-(4-(trifluoromethyl)phenyl)piperidin-3-yl)amino)cyclohexyl)amino)oxazole-5-carboxylate]
49 | 2 nM | CNC(=O)Cc1cccc(-c2ccnc(N[C@@H]3CCCC[C@H]3N[C@H]3CCCN(c4ccc(C(F)(F)F)cc4)C3)c2)c1 [Example 175]
50 | 51 nM | FC(F)(F)c1ccc(N2CCC[C@H](N[C@@H]3CCCC[C@H]3Nc3cc(-n4cccc4)ccn3)C2)cc1 [Example 190]
51 | 31 nM | OCCCc1cccc(-c2ccnc(N[C@@H]3CCCC[C@H]3N[C@H]3CCCN(c4ccc(C(F)(F)F)cc4)C3)c2)c1 [Example 153]
52 | 20 nM | CC(C)NC(=O)c1cccc(-c2ccnc(N[C@@H]3CCCC[C@H]3N[C@H]3CCCN(c4ccc(C(F)(F)F)cc4)C3)c2)c1 [Example 147]
53 | 1 nM | O=C(NC1CC1)c1cccc(-c2cnc(N[C@@H]3CCCC[C@H]3N[C@H]3CCCN(c4ccc(C(F)(F)F)cc4)C3)o2)c1 [Example 117]
